Source: article PMC10819243 (Pharmaceutics, 2024)

How the values were obtained:
[1] = tested on: HeLa; test: MTT assay, HeLa; type: cell-based
[2] = tested on: KB; test: MTT assay, KB; type: cell-based
[3] = tested on: MCF-7; test: MTT assay, MCF-7; type: cell-based
[4] = tested on: A-549; test: MTT assay, A-549; type: cell-based
[5] = tested on: HDF (normal fibroblast cell line); test: MTT assay, HDF; type: cell-based, human
[6] = tested on: HeLa, KB, MCF-7, A-549 and HDF cell lines; test: MTT assay, statements over several tested cell lines; type: cell-based; conditions: summary over the tested cell lines; read-out: IC50 values for the tested cell lines (range or summary)
[7] = tested on: U-87MG cells; test: Apoptosis assay (DNA fragmentation), U-87MG; type: cell-based
Description: The necrosis process induced by all the tested compounds was very small.

[8] = ratio of IC50 values vs oleanolic acid (1)

SMILES: COC(=O)[C@]12CCC(C)(C)CC1C1=CCC3[C@@]4(C)CC/C(=N\OC(=O)c5cc([N+](=O)[O-])cc([N+](=O)[O-])c5)C(C)(C)C4CC[C@@]3(C)[C@]1(C)CC2 (some centres unmarked) [Compound 5g, 3-(3′,5′-Dinitro)benzoxyiminoolean-12-en-28-oic acid methyl ester]
- IC50 ([1]; Homo sapiens, MTT assay, HeLa cervix carcinoma, (±s) standard deviation): 4.19 µM
- Selectivity Index HeLa ([1]; IC50 for normal cell line (HDF)/IC50 for HeLa): 1.48
- fold as active as OA (1), HeLa [1, 8]: ~3 fold
- IC50 ([2]; Homo sapiens, MTT assay, KB nasopharynx carcinoma, (±s) standard deviation): 4.61 µM
- Selectivity Index KB ([2]; IC50 for normal cell line (HDF)/IC50 for KB): 1.35
- fold as active as OA (1), KB [2, 8]: 3.2 fold
- IC50 ([3]; Homo sapiens, MCF7, MTT assay, MCF-7 breast carcinoma, (±s) standard deviation): 5.18 µM
- Selectivity Index MCF-7 ([3]; IC50 for normal cell line (HDF)/IC50 for MCF-7): 1.20
- fold as active as OA (1), MCF-7 [3, 8]: ~3 fold
- IC50 ([4]; Homo sapiens, A549, MTT assay, A-549 lung carcinoma, (±s) standard deviation): 4.82 µM
- Selectivity Index A-549 ([4]; IC50 for normal cell line (HDF)/IC50 for A-549): 1.29
- fold as active as OA (1), A-549 [4, 8]: ~2 fold
- IC50 ([5]; Homo sapiens, Fibroblast, MTT assay, HDF normal fibroblast cell line, (±s) standard deviation): 6.22 µM
- fold as active as OA (1), HDF ([5]; ratio of IC50 values vs oleanolic acid (1), normal cell line): ~3 fold
- IC50 [6]: 4.19 to 8.98 µM
- increase in DNA fragmentation ([7]; 0.1 µg/mL): 2.5 fold
- increase in DNA fragmentation ([7]; 1.0 µg/mL): 4.2 fold
